Consider three compounds from US9456619B1, “Control of caloric intake” (priority 2000, dated 2016).

For test [1] the following is noted: flavored liquid food, ad libitum; cited from earlier work.
The text on test [2]:
To find out, a few days later I began drinking much more water than usual.
I was already measuring my weight regularly. I used three scales, to ensure that any weight change was not due to a changing scale.

For test [3] the following is noted: rats, liquid diet ad libitum; effect appeared after first week; cited from earlier work.

In the case of `CC(=O)OC[C@H]1O[C@@](COC(C)=O)(O[C@H]2O[C@H](COC(C)=O)[C@@H](OC(C)=O)[C@H](OC(C)=O)[C@H]2OC(C)=O)[C@@H](OC(C)=O)[C@@H]1OC(C)=O` [sucrose octaacetate], the “weight gain versus rats eating unflavored solid food” value in test [1] was “gained more weight”.
With `O` [water], in test [2] (after reducing water intake from 5 to 3 liters/day), the weight rise result is “about 0.7 kg”. Moreover, the weight lost entry in test [2] (water intake raised to 5 liters/day, over two weeks before weight stabilized) is on record as “about 2.8 kg”.
For the compound `O=C1NS(=O)(=O)c2ccccc21` [saccharin], the “weight gain versus same food without saccharin” value in test [3] is recorded as “gained more weight”.
